Laboratory results published in a melting point compilation (Tetko et al.; mined from patent text by program, amines drawn as free bases though some values may be those of a salt).

For `CC(C)CCNC(Nc1cc(C(F)(F)F)cc(C(F)(F)F)c1)=C(C#N)C(=O)OC(C)(C)C`, the melting point was 128 to 129 °C.
Work on `O=C(CCCC(Cc1c[nH]c2ccccc12)(NC(=O)OC1C2CC3CC(C2)CC1C3)C(=O)NCCc1ccccc1)OCc1ccccc1` (stereo unspecified) yielded a melting point of 115 to 136 °C.
For `CC1Oc2cc3nc(S)[nH]c3cc2O1`, the melting point was > 300 °C.
Work on `C#CC1(COCc2ccccc2)OC(n2ccc(=O)[nH]c2=O)C(OC(C)=O)C1OCc1ccccc1` (stereo unspecified) yielded a melting point of 105 to 106 °C.
Work on `Cc1c(SCCCN2CCN(Cc3ccc(Cl)s3)CC2)ccnc1CSc1nc2cc(F)ccc2[nH]1` yielded a melting point of 116 to 119 °C.
In the case of `C1=NC=C2CCNC=C12`, the melting point is reported as 182 to 190 °C.
In the case of `COc1ccc(C(C)(C)OC)cc1CN[C@H]1C2CCN(CC2)[C@H]1C(c1ccccc1)c1ccccc1`, the melting point is reported as 127 °C.
With `[N-]=[N+]=NCc1cc(C(N)C(=O)O)ccc1O` (stereo unspecified) the melting point was > 300 °C.
For `Oc1c2c(nn1-c1nc3ccc(F)cc3s1)CCc1ccccc1-2`, the melting point was 246 to 247 °C.
In the case of `O=c1oc2ncccc2n1CCBr`, the melting point is reported as 109 to 110 °C.
`N#CC1=CSCC1Nc1c(Cl)cccc1Cl` (stereo unspecified) gave a melting point of 170 to 173 °C.
Work on `[N-]=[N+]=NS(=O)(=O)c1ccc(C(=O)Cl)cc1` yielded a melting point of 68 °C.
`Nc1ccc(S(=O)(=O)c2cc(Cl)nc(Cl)c2)cc1` gave a melting point of 190 to 192 °C.
Work on `CC(=O)OC1C(COC(=O)c2ccccc2)OC(n2ccc(=O)[nH]c2=O)C1F` (stereo unspecified) yielded a melting point of 179 to 180 °C.
Work on `N#Cc1c[nH]cc1-c1ccccc1Cl` yielded a melting point of 138 to 139 °C.
With `OCc1ccc(Cn2c(NC3CCN(CC(O)COc4ccc(F)cc4)CC3)nc3ccccc32)o1` (stereo unspecified) the melting point was 137 °C.
Compound `CC(C)=CCN1N=C(c2ccc(F)cc2)c2cc(Cl)ccc2CS1(=O)=O` has a melting point of 168 to 169 °C.
`c1ccc(CNc2nc(-n3cncn3)nc3ccccc23)cc1` gave a melting point of 193 to 195 °C.
`CCOC(=O)c1cn(-c2nc(F)cs2)c2nc(N3CCC(NC(=O)OC(C)(C)C)C3)ccc2c1=O` (stereo unspecified) gave a melting point of 233 to 234 °C.
Work on `CCOc1nn(Cc2ccc(OCCc3ccc(CC)cn3)cc2)cc1CCC(=O)O` yielded a melting point of 89 to 90 °C.
Work on `CN1CC=C(c2c[nH]c3cc(Cl)c(Cl)cc23)CC1` yielded a melting point of 255 to 257 °C.
`CCOC(=O)C(OC)C(=O)Nc1ccc(Br)cc1C` (stereo unspecified) gave a melting point of 93 to 95 °C.
`O=S(=O)(CCCl)CCC(F)(F)C(F)(F)C(F)(F)C(F)(F)C(F)(F)C(F)(F)C(F)(F)C(F)(F)F` gave a melting point of 130 to 131 °C.
With `O=Cc1cccc2ccc(-c3ccccc3)nc12` the melting point was 100 to 102 °C.
Compound `COc1cc(C(=O)c2ncc3ccc(C(=O)O)cn23)ccc1[N+](=O)[O-]` has a melting point of 313 °C.
Work on `CCCCCCC(C(=O)O)n1nnc(NC(=O)c2ccccc2C(=O)O)n1` (stereo unspecified) yielded a melting point of 140 to 142 °C.
`CC(=O)OC1C(OC(=O)c2ccccc2)C=C(C)C(=O)CC1(C)C` (stereo unspecified) gave a melting point of 94 to 95 °C.
`CCC(=O)N1CCC(NC(=O)Nc2ccc([N+](=O)[O-])cc2)CC1` showed a melting point of 240 to 241 °C.
With `CNc1nnc(-c2ccc3occ(-c4ccc(OC(F)(F)F)cc4)c3c2)o1` the melting point was 184 to 185 °C.
For `CCCNC(=O)C(C)(C)Oc1ccc(-c2ccc(N3CCCCC3)cc2)cc1`, the melting point was 132 to 134 °C.
With `CCOC(=O)c1[nH]nc(C)c1[N+](=O)[O-]` the melting point was 81 to 86 °C.
Compound `Nn1c(C(F)(F)F)cc(-c2ccc(C(F)(F)F)cc2)cc1=O` has a melting point of 125 °C.
`O=C(OCCN1C(=O)C=C(c2ccccc2)C1=O)c1cc([N+](=O)[O-])cc([N+](=O)[O-])c1` showed a melting point of 179 to 181 °C.
In the case of `CS(=O)(=O)NCCc1ccncc1`, the melting point is reported as 114 to 116 °C.
In the case of `O=c1ccc(-c2cccc(F)c2)n[nH]1`, the melting point is reported as 207 to 209 °C.
For `COc1nc(C)c(C)cc1NC(=O)N1CCN(C(c2ccccc2)c2ccccc2)CC1`, the melting point was 132 to 134 °C.
Compound `COC(=O)c1cc(Br)ccc1O` has a melting point of 59 to 61.5 °C.
For `CCOC(=O)Nc1ccc(CN2OCC(C)(C)C2=O)c(Cl)c1`, the melting point was 162 to 164 °C.
With `CCOc1cc2cc(C3=NNC(=O)CC3C)sc2cc1OCC` (stereo unspecified) the melting point was 170 to 171 °C.
`NC(C=C(Cc1ccccc1)CP(=O)(O)O)C(=O)O` (stereo unspecified) gave a melting point of 196 to 198 °C.
`CCN(c1ccc([N+](=O)[O-])cc1Cl)S(=O)(=O)c1ccc(C)cc1` showed a melting point of 118 to 119 °C.
In the case of `C#Cc1cc(F)c(-n2c(=O)c(C)c(C(F)(F)F)n(C)c2=O)cc1NS(C)(=O)=O`, the melting point is reported as 207 to 208 °C.
In the case of `NC1=NN(/C=N/O)C(=O)C1Cc1ccccc1` (stereo unspecified), the melting point is reported as 105 to 108 °C.
For `COC(C)(CC(=O)Nc1cccc(OC(=O)NC2CCCCC2)c1)OC`, the melting point was 163 °C.
Work on `Cc1cc(SC(C)C)c(NC(=O)CCCCCCCCSc2nc3cccc(C(F)(F)F)c3o2)c(SC(C)C)n1` yielded a melting point of 97 to 98 °C.
Work on `O=C(O)Cn1c(=O)[nH][nH]c1=O` yielded a melting point of 220 to 223 °C.
`CC(C)C(NC(=O)OC(C)(C)C)C(=O)NC(C(=O)OC1CC(n2cc(C=CBr)c(=O)[nH]c2=O)OC1CN=[N+]=[N-])C(C)C` (stereo unspecified) gave a melting point of 133 to 135 °C.
With `CCCCC1(CC)COP(=O)(Cc2ccc([N+](=O)[O-])cc2)OC1` (stereo unspecified) the melting point was 111 to 112 °C.
For `Cc1ccc2cccc(OCc3c(Cl)ccc(S(=O)(=O)N(C)Cc4ccccc4)c3Cl)c2n1`, the melting point was 154 °C.
`Fc1ccccc1C1=NCc2cncnc2-c2ccc(Cl)cc21` gave a melting point of 122 to 124 °C.
In the case of `COc1cc(C(C)=O)ccc1SCCCCl`, the melting point is reported as 53 to 55 °C.
